Consider ten compounds from ChEMBL document CHEMBL3856236, “Discovery of 6-Diazo-5-oxo-l-norleucine (DON) Prodrugs with Enhanced CSF Delivery in Monkeys: A Potential Treatment for Glioblastoma” (J Med Chem, 2016).

Active and inactive are the calls of the source. The rule behind the calls is not given here.

The nature of data set [1]: in vivo. The settings on record: macaca nemestrina, plasma, iv, 1.6 mg/kg.
Description: AUC (0 to t) in pig-tail monkey plasma at 1.6 mg/kg, iv measured at 0.25 to 6 hrs post dose by LC-MS analysis
The nature of data set [2]: Cmax in pig-tail monkey plasma at 1.6 mg/kg, iv by LC-MS analysis. It counts as ADME, organism-based. Details: dose 1.6 mg/kg, route intravenous. The settings on record: macaca nemestrina.
The nature of data set [3]: Cmax in C57BL/6 mouse plasma at 0.8 mg/kg administered via oral gavage by LC-MS analysis. It counts as ADME, organism-based. On the set-up: dose 0.8 mg/kg, route oral.
The nature of data set [4]: Antitumor activity against human U87 cells xenografted in RHFoxn1nu mouse assessed as tumor volume at 0.8 mg/kg, ip qd for 6 days measured on day 6 post dose (reference value: 533 mm3). It counts as functional, U-87MG ATCC. (A xenograft is tissue or cells of one species grown in another, often human tumour cells in immunodeficient mice.)
Data set [5] is described as follows: Antitumor activity against human U87 cells xenografted in RHFoxn1nu mouse assessed as tumor volume at 0.8 mg/kg, ip qd for 6 days measured on day 2 post dose (reference value: 401 mm3). It counts as functional, U-87MG ATCC.
The test system of data set [6] is Mus musculus. In words: Toxicity in RHFoxn1nu mouse xenografted with human U87 cells assessed as hunching at 0.8 mg/kg, ip qd for 6 days. The note with it: in vivo, 144 h. It counts as organism-based, U-87MG ATCC.
The nature of data set [7]: Tmax in C57BL/6 mouse plasma at 0.8 mg/kg administered via oral gavage by LC-MS analysis. It counts as ADME, organism-based.
Data set [8] is described as follows: Drug uptake in pig-tail monkey CSF at 1.6 mg/kg, iv measured at 30 mins post dose by LC-MS analysis. It counts as ADME, organism-based, Cerebrospinal fluid. The settings on record: macaca nemestrina, in vivo, 0.5 h.
The nature of data set [9]: Ratio of drug level in C57BL/6 mouse brain to plasma at 0.8 mg/kg administered via oral gavage. The note with it: read-out: BPR. It counts as ADME, organism-based.
A short description of data set [10]: in vivo. The settings on record: C57BL/6, mouse, plasma, po, 0.8 mg/kg.
Description: AUC (0 to t) in C57BL/6 mouse plasma at 0.8 mg/kg administered via oral gavage measured at 10 to 90 mins post dose by LC-MS analysis
Data set [11] in a line: Cmax in C57BL/6 mouse brain at 0.8 mg/kg administered via oral gavage by LC-MS analysis. It counts as ADME, organism-based. Details: dose 0.8 mg/kg, route oral. The note with it: in vivo.
Data set [12] concerns Mus musculus. In words: Toxicity in RHFoxn1nu mouse xenografted with human U87 cells assessed as lethargy at 0.8 mg/kg, ip qd for 6 days. It counts as organism-based, U-87MG ATCC. The note with it: in vivo, 144 h.
Data set [13] in a line: Antitumor activity against human U87 cells xenografted in RHFoxn1nu mouse assessed as tumor volume at 0.8 mg/kg, ip qd for 6 days measured immediately post dose (reference value: 409 mm3). It counts as functional, U-87MG ATCC.
Data set [14] concerns Mus musculus. The data set is described as follows: In vivo inhibition of glutamine metabolism in RHFoxn1nu mouse xenografted with human U87 cells assessed as accumulation of endogenous glutamine in tumor at 0.8 mg/kg, ip administered as single dose measured after 2 hrs by HPLC-MS analysis. It counts as functional, organism-based. The settings on record: U-87MG ATCC.
The test system of data set [15] is Mus musculus. The data set is described as follows: Toxicity in RHFoxn1nu mouse xenografted with human U87 cells assessed as ptosis at 0.8 mg/kg, ip qd for 6 days. It counts as organism-based, U-87MG ATCC. The settings on record: in vivo, 144 h.
In data set [16] the test system is Mus musculus. In words: Toxicity in RHFoxn1nu mouse xenografted with human U87 cells assessed as weight loss at 0.8 mg/kg, ip qd for 6 days. It counts as organism-based, U-87MG ATCC. The note with it: in vivo, 144 h.
Data set [17] in a line: Antitumor activity against human U87 cells xenografted in RHFoxn1nu mouse assessed as tumor volume at 0.8 mg/kg, ip qd for 6 days measured on day 4 post dose (reference value: 454 mm3). It counts as functional, U-87MG ATCC.
Data set [18] in a line: Antitumor activity against human U87 cells xenografted in RHFoxn1nu mouse assessed as reduction in tumor volume at 0.8 mg/kg, ip qd for 6 days measured 2 to 6 days post dose. It counts as functional, U-87MG ATCC. The settings on record: U-87 MG.
A short description of data set [19]: Metabolic stability in mouse plasma assessed as compound remaining at 10 uM at 60 mins by LC-MS/MS analysis. It counts as ADME, cell-free. The note with it: read-out: Stability.
Data set [20] can be described thus: Metabolic stability in monkey plasma assessed as compound remaining at 10 uM at 60 mins by LC-MS/MS analysis. It counts as ADME, cell-free, Macaca mulatta. The settings on record: rhesus monkey, read-out: Stability.
The nature of data set [21]: Metabolic stability in human plasma assessed as compound remaining at 10 uM at 60 mins by LC-MS/MS analysis. It counts as ADME, cell-free. The note with it: read-out: Stability.
Data set [22] is described as follows: Chemical stability of the compound at 10 uM at pH 7.4 after 1 hr by LC-MS/MS analysis. It counts as physicochemical. The note with it: buffer; for remaining at 1 h, 10 µM: pH 7.4, read-out: Stability; for Stability: pH 7.4, 1 h, 10 µM.
A short description of data set [23]: Cmax in C57BL/6 mouse brain assessed as 6-Diazo-5-oxo-L-norleucine levels at 1.8 mg/kg administered via oral gavage by LC-MS analysis. Details: dose 1.8 mg/kg, route oral. The settings on record: in vivo. It counts as ADME, organism-based.
The nature of data set [24]: AUC (0 to t) in C57BL/6 mouse brain assessed as 6-Diazo-5-oxo-L-norleucine levels at 1.8 mg/kg administered via oral gavage measured at 10 to 90 mins post dose by LC-MS analysis. The note with it: in vivo. It counts as ADME, organism-based.
Data set [25] can be described thus: AUC (0 to t) in pig-tail monkey plasma assessed as 6-Diazo-5-oxo-L-norleucine levels at 3.6 mg/kg, iv measured at 0.25 to 6 hrs post dose by LC-MS analysis. It counts as ADME, organism-based. Details: time upper 6 hr, dose 3.6 mg/kg, time lower 0.25 hr, route intravenous. The settings on record: macaca nemestrina, in vivo.
Data set [26] can be described thus: Cmax in C57BL/6 mouse plasma assessed as 6-Diazo-5-oxo-L-norleucine levels at 1.8 mg/kg administered via oral gavage by LC-MS analysis. It counts as ADME, organism-based. Details: dose 1.8 mg/kg, route oral. The note with it: in vivo.
Data set [27] is described as follows: AUC (0 to t) in C57BL/6 mouse plasma assessed as 6-Diazo-5-oxo-L-norleucine levels at 1.8 mg/kg administered via oral gavage measured at 10 to 90 mins post dose by LC-MS analysis. It counts as ADME, organism-based. The note with it: in vivo.
Data set [28] is described as follows: Prodrug activation in pig-tail monkey CSF assessed as 6-Diazo-5-oxo-L-norleucine levels at 3.6 mg/kg, iv measured at 30 mins post dose by LC-MS analysis. The settings on record: macaca nemestrina, in vivo, 0.5 h. It counts as organism-based, Cerebrospinal fluid.
The nature of data set [29]: Ratio of drug level in C57BL/6 mouse brain to plasma assessed as 6-Diazo-5-oxo-L-norleucine levels at 1.8 mg/kg administered via oral gavage. It counts as ADME, organism-based.
Data set [30] in a line: Cmax in pig-tail monkey plasma assessed as 6-Diazo-5-oxo-L-norleucine levels at 3.6 mg/kg, iv by LC-MS analysis. It counts as ADME, organism-based. Details: dose 3.6 mg/kg, route intravenous. The settings on record: macaca nemestrina, in vivo.
Data set [31] in a line: Tmax in pig-tail monkey plasma assessed as 6-Diazo-5-oxo-L-norleucine levels at 3.6 mg/kg, iv by LC-MS analysis. It counts as ADME, organism-based. The settings on record: macaca nemestrina, in vivo.
Data set [32] can be described thus: Tmax in C57BL/6 mouse plasma assessed as 6-Diazo-5-oxo-L-norleucine levels at 1.8 mg/kg administered via oral gavage by LC-MS analysis. It counts as ADME, organism-based. The note with it: in vivo.

For `[N-]=[N+]=CC(=O)CC[C@H](N)C(=O)O` [6-DIAZO-5-OXO-L-NORLEUCINE], the exposure AUC(0-t) (as a rule, the area under the concentration-time curve up to a stated or last time point) stood at 42.7 µM·h in the data set “in vivo [1]” and 1.25 µM·h in the data set “in vivo [10]”. Moreover, the Cmax in data set [2] turned out to be 12600 nM; in [3], 2200 nM; in data set [11] it was 0.56 nmol/g. The Activity in [4] was 251 mm3; in [5], 364 mm3; with Mus musculus [6], “Toxic”; in the data set with Mus musculus [12] it was “Toxic”; in [13], 504 mm3; with Mus musculus [15] it was “Toxic”. The values for the Activity (in the data set on Mus musculus [16]; in data set [17]) were 12% and 256 mm3, respectively. For the same compound, in data set [7], the time of peak concentration (Tmax) (usually the time from dosing to the highest level) was found to be 10.2 min. Also, the Drug uptake in data set [8] is recorded as 0.33 nmol/g. Moreover, the Kp in [9] came to 0.46. Further, the inhibition result with Mus musculus [14] was “Active”. For the same compound, the inhibition in vivo (in general, how much of the control response was suppressed) at 0.8 mg/kg in data set [18] is more than 50%.

`CCOC(=O)[C@H](CCC(=O)C=[N+]=[N-])NC(=O)OCc1oc(=O)oc1C`: the remaining at 1 h, 10 µM in data set [19] was 0%; in [20], 0%; in [21], 0%; in data set [22], more than 90%.

Take `CCOC(=O)[C@@H](N)CCC(=O)C=[N+]=[N-]`: in [22], the Stability result is reported as “Unstable”.

Turning to `CCOC(=O)[C@H](CCC(=O)C=[N+]=[N-])NC(=O)[C@@H](N)CC(C)C`, the remaining at 1 h, 10 µM in data set [19] was 0%; in data set [20] it was 1%; in data set [21] it was 1%; in [22], more than 90%.

In the case of `COC(=O)[C@H](CCC(=O)C=[N+]=[N-])NC(=O)OC(OC(=O)C(C)(C)C)C(C)C` (stereo partly drawn), the Cmax in [23] was 0.64 nmol/g; in data set [26], 1500 nM; in data set [30], 2230 nM. Further, the AUCt in data set [24] came out at 0.69 nmol·h/g; in [25], 5.71 µM·h; in data set [27], 1.22 µM·h. Moreover, the remaining at 1 h, 10 µM was 0% in data set [19], 61% in data set [20], 91% in [21] and more than 90% in [22]. Besides, the Drug metabolism in data set [28] was 1.43 nmol/g. The BPR in data set [29] was 0.57. Further, the time to peak (Tmax) in [31] stood at 15 min; in data set [32] it was 90 min.

Take `CC(C)OC(=O)[C@H](CCC(=O)C=[N+]=[N-])NC(=O)OCOC(=O)C(C)(C)C`: the remaining at 1 h, 10 µM was 0% in data set [19], 0% in data set [20], 9% in data set [21] and more than 90% in data set [22].

For `Cc1oc(=O)oc1COC(=O)N[C@@H](CCC(=O)C=[N+]=[N-])C(=O)OC(C)C`, the remaining at 1 h, 10 µM in data set [19] was 0%; in data set [20] it was 0%; in [21], 0%; in data set [22], more than 90%.

As to `CC(C)OC(=O)[C@@H](N)CCC(=O)C=[N+]=[N-]`, the Stability result in data set [22] is listed as “Unstable”.

As to `CCC(OC(=O)N[C@@H](CCC(=O)C=[N+]=[N-])C(=O)OC)OC(=O)C(C)(C)C` (stereo partly drawn), the remaining at 1 h, 10 µM in data set [19] was 0%; in data set [20], 75%; in data set [21], 88%; in data set [22] it was more than 90%.

Take `CC(C)C[C@H](N)C(=O)N[C@@H](CCC(=O)C=[N+]=[N-])C(=O)OC(C)C`: the remaining at 1 h, 10 µM in data set [19] is 0%; in data set [20] it was 1%; in data set [21], 1%; in data set [22] it was more than 90%.
